{
  "source": "patent EP0614464B1",
  "about": "“PEPTIDES AND ANTIBODIES FOR TREATMENT OF RHEUMATOID ARTHRITIS” (PEPTIDE THERAPEUTICS LIMITED, priority 1991, dated 1993)",
  "key": {"[1]": {"tested_on": "mouse macrophage cell line (PU 518)", "experiment": "Macrophage inhibition assay: IgA-α1AT complex-stimulated release of lysosomal enzymes", "format": "cell-based", "description": "A mouse macrophage cell line (PU 518) was stimulated to release lysosomal enzymes by the addition of purified human IgA-α1AT complex. The degree to which this release was then inhibited by the peptides or other drugs was investigated, with the degree of inhibition being indicative of activity; the concentration of peptide or other test drugs giving 50% inhibition being recorded. Briefly the method was as follows:\n25µl of peptide or drug was double diluted in […] + 10% foetal calf serum (FCS) in a sterile tissue culture 96 well plate. 25µl of IgA-α1AT complex in RPMI 1640 +10% FCS at about 0.2mg/ml was then added to all wells. 50µl of cells at a concentration of 2 x 10^6 cells/ml in RPMI 1640 + 10% FCS was then added to each well.\nControl wells of cells alone and cells + IgA-α1AT complex were also prepared. The plate was then gently mixed and incubated overnight (16hr) at 37°C in a 4% CO2 atmosphere. Plates were then centrifuged at 1200 rpm for 10 minutes in a bench top centrifuge.\n40µl of supernatant was then taken from each well and added to a 96 well polystyrene assay plate, to which was added 40µl of 160mM acetate buffer (pH 4.3) containing 2mM phenolphthalein-β-D-glucuronic acid. To obtain a standard curve, dilutions of phenolphthalein in acetate buffer from 100-5µg/ml were also added to separate wells in the assay plate.\nThe plates were then incubated at 37°C for 4 hours before 150µl of 0.2M glycine/NaOH buffer (pH 10.6) containing 0.2M NaCl was added to stop the reaction.\nPlates were then shaken for 3 minutes before the optical density at 570nm was read on a plate reader, and the amount of β-D-glucuronic acid released from the cells calculated. The concentration of peptide or drug giving 50% inhibition of release was then noted.\nThe results for the macrophage inhibition assays are expressed as the concentration needed to prevent 50% release of β-glucoromidase."}, "IgA-α1AT complex": {"tested_on": "IgA-α1AT complex", "experiment": "HPLC analysis of in vitro dissociation of purified IgA-α1AT complex", "format": "biochemical, human", "details": "for HPLC minimum: Table 5, minimum concentration giving complex : free IgA ratio at 20% (base-line 14%), >500µM = no complex dissociation at highest concentration tested; for activity: comment in words on Tables 3-5, assay not given, fits the HPLC values", "description": "The ability of the peptides of the invention to dissociate purified IgA-α1AT complex in vitro was tested as described below. The anti-rheumatic drug D-penicillamine and other synthetic peptides were used as controls. […] The sample was monitored at wavelength 206nm at a flow rate of 1ml/minute with phosphate buffer (0.1M) pH 7.1. […] They represent the ability of the peptides to dissociate the IgA-α1AT complex in vitro. In these experiments, the base-lines level comprises a complex : free IgA ratio of 14% . The minimum concentration of peptide taken to produce a positive dissociation effect is that which results in a complex: free IgA ratio at 20%. In the results tables, all the peptide values are expressed in µMoles."}, "[2]": {"tested_on": "alternative complement (C3) pathway", "experiment": "Inhibition of C3-activation: preventing IgA-α1AT complex from activating the alternative complement pathway, rabbit erythrocyte haemolysis read-out", "format": "biochemical, human", "details": "Table 5; minimum concentration needed to prevent C3 activation"}, "[3]": {"tested_on": "alternative complement (C3) pathway", "experiment": "Inhibition of C3-activation: preventing IgA-α1AT complex from activating the alternative complement pathway, rabbit erythrocyte haemolysis read-out", "format": "biochemical, human", "details": "for C': minimum concentration of peptide needed to prevent C3 activation; for C' minimum: Table 5, minimum concentration needed to prevent C3 activation", "description": "Various peptides were tested for their ability to prevent the IgA-α1AT complex from activating the alternative complement (C3) pathway.\nThe method of measuring the capacity to activate the alternative complement pathway by the non-immune IgA-α1AT complex and the subsequent inhibition of this activation by anti-rheumatic peptides is described below.\nThis method was based on the method described by Riches and Stanworth, Immunology Letters, 1980, 1, 363,366, with modification to miniaturise it thus allowing the assay to be carried out on microtitre plates.\nThe initial observation by Platts-Mills and Ishizaka (J Immunol. (1974) 113, 348,358) that low dilutions of fresh normal human serum, from which calcium had been removed by chelation with 10mM EGTA to block the classical complement pathway, caused greater than 90% haemolysis of unsensitised rabbit erythrocytes when incubated at 37°C was employed in this assay.\nThe non-immune complex IgA-α1AT had been shown in the past to be the only known soluble complex to activate the alternative pathway complement and […] of the rabbit erythrocytes. This inhibition required biologically active complex.\nThe buffers solutions required in this assay were (a) Total lysis buffer (1% Triton100 in ultra pure water), (b) Alternative pathway complement fixation diluent (APCFD) which was:- • 83 volumes CFD, DH 7.2 (1 oxoid tablet: 100ml UPW) • 10 volumes 0.1M EGTA pH 7.2 • 7 volumes MgCl2 pH 7.2\nBlood was obtained by venipuncture from a healthy human individual. The blood was allowed to clot for 1 hour at room temperature and then stored overnight at 4°C. The serum was removed and stored at -70°C in lml aliquots. For use, the serum was defrosted and 100µl of 0.1m EGTA pH 7.2 and 70µl O.lm MgCl2 pH 7.2 was added.\nRabbit red blood cells (RBC) were obtained by venipuncture of a healthy rabbit and collected into 0.1M citrate buffer pH 6.2. The RBC were washed 3 times in citrate buffer and the cells were stored in this buffer which was changed every week. It was possible to store cells in this way for 3 weeks. Peptides\nThe peptides were synthesised as described in Example 1 and made up in UPW to lmM. They were kept frozen at -70°C prior to use.\nThis was prepared as previously described in Example 2. It was kept frozen in small aliquots prior to use.\nUsing a round bottomed welled flexible microtitre plate 100µl neat serum (with added EGTA and MgCl2) was added to the first wells in duplicate. This was double diluted out, with APCFD to give a volume of 50µl well. 8 test wells (+ duplicates) were sufficient. 8 wells were prepared as a positive control - (100µl 1% Triton/UPW). 8 wells were prepared as a negative control - (100µl APCFD (Blank)).\n50µl of APCFD was added to the test wells and 50µl of 1% rabbit RBC was added to all wells. The plate was then incubated at 37°C for 30 minutes and then centrifuged for 10 minutes at 2000 rpm.\n75µl of the supernatant was carefully removed and plated onto a flat bottom welled microtitre plate. The plates were then read at 410nm interference, 690nm reference. The zero or blank value was calculated as the mean value of negative control wells and using the mean of the positive control wells, the percentage lysis for serum dilutions was calculated. In future assays the serum dilution in which lysis was approx. 80% of Rb RBC was used. This was usually in the range 1:4 - 1:6 dilution (ie. lml serum : 4ml APCFD - 6ml APCFD).\nA 1:1 dilution of IgA-α1AT complex was made with twice concentrated APCFD. 100µl of this 1:1 dilution of complex was added to the first wells in duplicate. This was double diluted out with APCFD to give 50 µl per well. 50µl of the predetermined dilution of serum (see (i) above) was added to each well. Positive and negative control wells as described in (a) above and wells containing serum alone were used as controls. The plates were incubated at 37°C for 30 minutes and then centrifuged at 2000 rpm for 1 minute. […]"}, "[4]": {"details": "Table 5, head prints no unit, b70 says all values of the results tables are in µMoles, concentration needed to prevent 50% release of β-glucoromidase"}, "[5]": {"details": "Table 3; concentration needed to prevent 50% release of β-glucoromidase; 16hr incubation"}, "[6]": {"details": "Table 3, minimum peptide concentration giving complex : free IgA ratio at 20% (base-line 14%), 90 minutes at 37°C"}, "[7]": {"details": "Table 5; head prints no unit, b70 says all values of the results tables are in µMoles; concentration needed to prevent 50% release of β-glucoromidase"}},
  "note": "Ends that are not written are not given here. Peptide text beside a SMILES is read from it.",
  "data": [
    {"compound": "N[C@@H](CS)C(=O)O", "note": "[Cysteine]", "values": [
      {"measurement": "IC50", "setting": "[1]; [4]", "value": 500, "unit": "µM"},
      {"measurement": "HPLC minimum", "setting": "IgA-α1AT complex; 90 minutes at 37°C", "value": 250, "unit": "µM"},
      {"measurement": "C' minimum", "setting": "[2]", "value": 16, "unit": "µM"}
    ]},
    {"compound": "CC(C)(S)[C@@H](N)C(=O)O", "note": "[D-Penicillamine]", "values": [
      {"measurement": "IC50", "setting": "[1]; [4]", "value": 500, "unit": "µM"},
      {"measurement": "HPLC minimum", "setting": "IgA-α1AT complex; 90 minutes at 37°C", "value": 250, "unit": "µM"},
      {"measurement": "C' minimum", "setting": "[2]", "value": 31, "unit": "µM"}
    ]},
    {"compound": "N[C@@H](CCC(=O)N[C@@H](CS)C(=O)NCC(=O)O)C(=O)O", "note": "[Glutathione]", "values": [
      {"measurement": "HPLC minimum", "setting": "IgA-α1AT complex; 90 minutes at 37°C", "value": 500, "unit": "µM"},
      {"measurement": "activity", "setting": "IgA-α1AT complex", "value": "relatively inactive"},
      {"measurement": "C' minimum", "setting": "[2]", "value": 31, "unit": "µM"}
    ]},
    {"compound": "CC(=O)N[C@@H](CS)C(=O)O", "note": "[N-acetyl Cysteine]", "values": [
      {"measurement": "HPLC minimum", "setting": "IgA-α1AT complex; 90 minutes at 37°C", "value": 500, "unit": "µM"},
      {"measurement": "activity", "setting": "IgA-α1AT complex", "value": "relatively inactive"},
      {"measurement": "C' minimum", "setting": "[2]", "value": 4, "unit": "µM"}
    ]},
    {"compound": "NCCCC[C@H](NC(=O)[C@H](CCCCN)NC(=O)[C@H](CS)NC(=O)[C@@H](N)Cc1c[nH]cn1)C(N)=O", "note": "[Peptide 132, HCKKnh2] (H-HCKK-NH2)", "values": [
      {"measurement": "IC50", "setting": "[1]; Table 1; concentration needed to prevent 50% release of β-glucoromidase; 16hr incubation", "value": 60, "unit": "µM"},
      {"measurement": "C'", "setting": "[3]; Table 1", "value": 16, "unit": "µM"},
      {"measurement": "HPLC %", "setting": "IgA-α1AT complex; Table 1, minimum peptide concentration giving complex : free IgA ratio at 20% (base-line 14%), 90 minutes at 37°C", "value": 10, "unit": "µM"}
    ]},
    {"compound": "DHCKK-NH2 [Peptide 113, DHCKKnh2]", "values": [
      {"measurement": "IC50", "setting": "[1]; [5]", "value": 70, "unit": "µM"},
      {"measurement": "C'", "setting": "[3]; Table 3", "value": 78, "unit": "µM"},
      {"measurement": "HPLC", "setting": "IgA-α1AT complex; [6]", "value": 10, "unit": "µM"}
    ]},
    {"compound": "EGHCKK-NH2 [Peptide 155, EGHCKKnh2]", "values": [
      {"measurement": "IC50", "setting": "[1]; [5]", "value": 60, "unit": "µM"},
      {"measurement": "C'", "setting": "[3]; Table 3", "value": "<2", "unit": "µM"},
      {"measurement": "HPLC", "setting": "IgA-α1AT complex; [6]", "value": 5, "unit": "µM"}
    ]},
    {"compound": "HCCGKnh2 [Peptide 147, reference compound]", "values": [
      {"measurement": "IC50", "setting": "[1]; [7]", "value": 250, "unit": "µM"},
      {"measurement": "C' minimum", "setting": "[3]", "value": 32, "unit": "µM"},
      {"measurement": "HPLC minimum", "setting": "IgA-α1AT complex; 90 minutes at 37°C", "value": 10, "unit": "µM"}
    ]},
    {"compound": "HCKKD-NH2 [Peptide 120, HCKKDnh2]", "values": [
      {"measurement": "IC50", "setting": "[1]; Table 4; concentration needed to prevent 50% release of β-glucoromidase; 16hr incubation", "value": 25, "unit": "µM"},
      {"measurement": "C'", "setting": "[3]; Table 4", "value": 62, "unit": "µM"},
      {"measurement": "HPLC", "setting": "IgA-α1AT complex; Table 4, minimum peptide concentration giving complex : free IgA ratio at 20% (base-line 14%), 90 minutes at 37°C", "value": 50, "unit": "µM"}
    ]},
    {"compound": "Substance P [Peptide 36, reference compound]", "values": [
      {"measurement": "IC50", "setting": "[1]; [7]", "value": "> 500", "unit": "µM"},
      {"measurement": "C' minimum", "setting": "[3]", "value": ">500", "unit": "µM"},
      {"measurement": "HPLC minimum", "setting": "IgA-α1AT complex; 90 minutes at 37°C", "value": ">500", "unit": "µM"}
    ]}
  ]
}
